Key:
casein kinase II (CKII) = casein kinase II (CKII) (Homo sapiens, UniProt P68400); conditions: 5 μg/ml; cited from earlier work
[1] = system: A673 Ewing's sarcoma cells; assay: Soft agar colony formation in the presence of histone deacetylase inhibitor; type: cell-based; conditions: 1.5 uM, versus ethanol carrier, FIG. 6
Procedure: Cell Culture: Ewing's sarcoma cell lines were grown as described (Lessnick et al., 2002). Following retroviral infection, polyclonal cell populations were prepared by growth in the appropriate selective media. Soft agar assays were performed as described (Lessnick et al., 2002). Tet-A673 cells were generated by infection with pREV-TETOFF (Clontech) and selection with G418. A single clone was then infected with FLAG-EWS/FLI-pREV-TRE, and selected with hygromycin in the presence of 1 ug/ml doxycycline and G418 (Lessnick et al., 2002). Individual clones were tested for induction of FLAG-EWS/FLI as previously described (Lessnick et al., 2002).
To test the effect of a histone deacetylase inhibitor on NKX2.2 activity, A673 Ewing's sarcoma cells were seeded into soft agar in the presence of 1.5 uM tricostatin (TSA), or ethanol (the TSA carrier) (FIG. 6). […] Soft agar colony formation is one measure of oncogenic transformation. Thus, the histone deacetylase inhibitor TSA blocks oncogenic transformation of Ewing's sarcoma cells.

Chain of casein kinase II (CKII) (P68400 whole entry): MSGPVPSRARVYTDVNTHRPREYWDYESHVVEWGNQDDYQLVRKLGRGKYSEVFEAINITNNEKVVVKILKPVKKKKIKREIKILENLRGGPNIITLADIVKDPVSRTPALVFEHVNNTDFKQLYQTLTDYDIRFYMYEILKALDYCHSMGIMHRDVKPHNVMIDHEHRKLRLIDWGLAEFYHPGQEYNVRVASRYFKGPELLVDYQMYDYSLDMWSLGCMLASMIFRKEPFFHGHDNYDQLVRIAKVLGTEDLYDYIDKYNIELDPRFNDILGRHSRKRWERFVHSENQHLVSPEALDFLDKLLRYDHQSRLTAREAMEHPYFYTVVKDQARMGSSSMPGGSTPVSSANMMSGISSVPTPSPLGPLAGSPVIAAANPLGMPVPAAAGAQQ

Question: Which “inhibition of the protein kinase activity of CKII” value (casein kinase II (CKII)) does the source give for heparin here?
Answer: > 90%

Question: For `CC(/C=C/C(=O)NO)=C\[C@@H](C)C(=O)c1ccc(N(C)C)cc1` [TSA, Trichostatin A], which “soft agar colony formation (oncogenic transformation)” value [1] is on record?
Answer: prevents Ewing's cells from forming colonies in soft agar

Source: patent US7939253B2, “Methods and compositions for the diagnosis and treatment of ewing's sarcoma” (The University of Utah Research Foundation, priority 2007, dated 2011)
